Experimental data from paper PMC7754465, “Multiparameter Kinetic Analysis for Covalent Fragment Optimization by Using Quantitative Irreversible Tethering (qIT)” (Chembiochem, 2020).

Assay: qIT: rate of reaction with glutathione (intrinsic reactivity)
Type: physicochemical
Conditions: fragment 0.5 mM, glutathione 5 μM
Protocol: Previously we described a fluorescence‐based platform for screening cysteine‐targeting covalent fragments called quantitative irreversible tethering (qIT). ^[19] The method measures and compares the rate of reactions of individual fragments with the protein‐of‐interest (POI) and GSH (Figure 2a and b).
Figure 2 Comparison of previous and current applications of Quantitative irreversible tethering (qIT). a) Overview of rate determination. A cysteine‐containing biomolecule is treated with covalent fragments under pseudo‐first‐order conditions. Reaction progress is followed by discrete measurement of free cysteine concentration by using the fluorogenic probe CPM, and rate constants (k obs) are derived from exponential regression analysis. b) Comparison of the reactivity profile of each fragment with the POI and GSH typically classes them as unreactive, reactive but non‐selective or reactive and selective. c) Quantification of kinetic POI/GSH selectivity facilitates hit identification. d) The observed rate of reaction between the POI and hit fragment is determined at a range of ligand concentrations by using qIT. Subsequent hyperbolic regression analysis is used to derive K i and k inact to facilitate comprehensive covSAR analysis. […]

Compound: C=CC(=O)N1CCCc2cc(C(=O)OC)ccc21 [compound 1]
- GSH: kobs/[I]: 0.02 M⁻¹ s⁻¹
